# Patent US10517889B2, “Modulators of SMAD7 expression” (Ionis Pharmaceuticals, Inc., priority 2017, dated 2019)
# Columns and labels:
# [1] = test system: human SMAD7 mRNA; test: Antisense inhibition of human SMAD7 mRNA expression in Hep3B cells by 3-10-3 cEt gapmers, 10,000 nM, electroporation (Example 2); assay type: cell-based; conditions: Hep3B cells, electroporation with 10,000 nM antisense oligonucleotide, approximately 24 hours
# Method in brief: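 qRT-PCR (RTS5062) of SMAD7 mRNA, normalised to RIBOGREEN total RNA, gave percent inhibition relative to untreated controls. Hep3B cells at 20,000 per well received 10,000 nM oligonucleotide by electroporation, with ~24 h treatment.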
# [2] = Oligonucleotide concentration in liver and colon by LC-MS/MS after subcutaneous administration in CD-1 mice (Example 6); assay type: in vivo; conditions: 50 mg/kg subcutaneously twice a week for 7 weeks, 48 hours after the last dose
# Description: Groups of 8-9 week old male CD-1 mice were injected subcutaneously twice a week for 7 weeks with 50 mg/kg of Ionis oligonucleotides (100 mg/kg/week dose). Each group contained 4 mice. One group of male CD-1 mice was injected subcutaneously twice a week for 7 weeks with PBS. Plasma was collected for analysis on day 28.
# Oligonucleotide concentrations in the liver and colon were analyzed using LC-MS/MS method.
# [3] = test system: mouse Smad7 mRNA; test: Pharmacology: mouse Smad7 mRNA expression in liver, kidney, duodenum, ileum and colon after subcutaneous administration in CD-1 mice (Example 6); assay type: in vivo; conditions: 50 mg/kg subcutaneous twice weekly for 7 weeks, normalized to GAPDH
# Method in brief: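 Male CD-1 mice, 8-9 weeks old, got 50 mg/kg oligonucleotide subcutaneously twice weekly (100 mg/kg/week) for 7 weeks, with PBS controls; n=4 per group. At necropsy, Smad7 mRNA in liver, kidney, duodenum, ileum and colon was measured by RT-PCR (probe set HTS7555), normalized to GAPDH; one-way ANOVA with Dunnett's test.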
# [4] = Hematology assays after oral gavage in CD-1 mice (Example 7); assay type: in vivo; design: RBC: unit not given here; conditions: 500 mg/kg oral gavage once daily for 4 weeks
# Description: Groups of 7-8 week old male CD-1 mice were given an oral gavage dose once daily for 4 weeks of 500 mg/kg of Ionis SMAD7 oligonucleotides. Each group contained 8 mice. One group of male CD-1 mice was administered saline by oral gavage daily.
# Blood obtained from all mouse groups was measured by an ADVIA2120i hematology analyzer (Siemens, USA) for measurements of the various blood cells, as well as other hematology markers. None of the Ionis SMAD7 oligonucleotides caused changes in the levels of any of the hematology markers outside the expected range for antisense oligonucleotides.
# [5] = Body and organ weights after subcutaneous administration in beagle dogs (Example 8); assay type: in vivo; conditions: 30 mg/kg subcutaneous days 1, 3, 5, 8, 15, 22, 29, end of study
# Description: (§1) There were 4 animals per group.
# Body weights as well as kidney, spleen, liver (with gall bladder), mesenteric lymph node, heart, and thymus weights were measured at the end of the study. […] Ionis SMAD7 oligonucleotides that caused any changes in organ weights outside the expected range for antisense oligonucleotides were excluded from further studies.
# [6] = Hematology assays after subcutaneous administration in beagle dogs (Example 8); assay type: in vivo; conditions: 30 mg/kg subcutaneous days 1, 3, 5, 8, 15, 22, 29
# Description: as §1
# Blood samples were collected from the cephalic vein or saphenous vein of each animal. About 0.5 mL of blood samples was put into tubes containing the potassium salt of EDTA. Blood obtained from all dog groups was measured using an ADVIA2120i hematology analyzer for measurements of the various blood cells, as well as other hematology markers.
# [7] = Oligonucleotide concentration in tissues by LC-MS/MS after subcutaneous administration in beagle dogs (Example 8); assay type: in vivo; conditions: 30 mg/kg subcutaneous, 48 hours after the last dose
# Description: as §1
# Oligonucleotide concentrations of both ION 830025 and ION 798781 were detected in various tissues by LC-MS/MS analysis. The results are presented below, expressed as μg/g tissue. The data was collected 48 hours after the last dose.
# [8] = SMAD7 mRNA by RT-PCR (RTS5062), relative to untreated control cells
substance,measurement,setting,value
"829994 (GGAGGCAGGGCCGCGA; 3-10-3 cEt gapmer, further chemistry not given here) [compound 829994]",% Inhibition,"[1]; SMAD7 mRNA, primer probe set RTS5062, relative to untreated control cells",68%
same,"Oligonucleotide concentration, Colon",[2],11 μg/g tissue
same,"Oligonucleotide concentration, Liver",[2],45 μg/g tissue
same,"% inhibition of Smad7 mRNA expression (compared to control), Kidney",[3],73%
same,"% inhibition of Smad7 mRNA expression (compared to control), Liver",[3],58%
same,Basophils,[4],0.01 10^3/μL
same,Eosinophils,[4],0.09 10^3/μL
same,Hematocrit,[4],51.5%
same,Hemoglobin,[4],15.2 g/dL
same,Lymphocytes,[4],80.4%
same,MCH,[4],15.1 pg
same,MCHC,[4],29.5 g/dL
same,MCV,[4],51.2 fL
same,Monocytes,[4],0.10 10^3/μL
same,Neutrophils,[4],14.0%
same,RBC,[4],10.1
same,Reticulocytes,[4],3.0%
same,WBC,[4],4.1 10^3/μL
same,platelets,[4],1219 10^3/μL
same,Body weight,[5],7335 g
same,Heart weight,[5],57.9 g
same,Kidney weight,[5],39.1 g
same,Liver weight,[5],250.0 g
same,Mesenteric LN weight,[5],9.0 g
same,Spleen weight,[5],22.8 g
same,Thymus weight,[5],6.3 g
same,Basophils,[6],0.5%
same,Eosinophils,[6],1.8%
same,Hematocrit,[6],44%
same,Hemoglobin,[6],15.3 g/dL
same,Lymphocytes,[6],26%
same,MCH,[6],23.2 pg
same,MCHC,[6],35.1 g/dL
same,MCV,[6],66 fL
same,Monocytes,[6],6.3%
same,Neutrophils,[6],65%
same,PLT,[6],287 ^3/μL
same,RBC,[6],6.6 ^6/L
same,Reticulocytes,[6],0.9%
same,WBC,[6],12.5 ^3/μL
same,"Full length oligonucleotide, Distal colon",[7],7 µg/g
same,"Full length oligonucleotide, Duodenum",[7],23 µg/g
same,"Full length oligonucleotide, Ileum",[7],12 µg/g
same,"Full length oligonucleotide, Kidney",[7],894 µg/g
same,"Full length oligonucleotide, Liver",[7],335 µg/g
same,"Full length oligonucleotide, Proximal colon",[7],11 µg/g
"830025 (antisense TTTGTAAATCGAAAGC; 3-10-3 cEt gapmer, further chemistry not given here) [compound 830025]",% Inhibition,[1]; [8],62%
same,"Oligonucleotide concentration, Colon",[2],39 μg/g tissue
same,"Oligonucleotide concentration, Liver",[2],77 μg/g tissue
same,"% inhibition of Smad7 mRNA expression (compared to control), Kidney",[3],45%
same,"% inhibition of Smad7 mRNA expression (compared to control), Liver",[3],60%
same,Basophils,[4],0.01 10^3/μL
same,Eosinophils,[4],0.08 10^3/μL
same,Hematocrit,[4],52.4%
same,Hemoglobin,[4],15.0 g/dL
same,Lymphocytes,[4],77.6%
same,MCH,[4],14.9 pg
same,MCHC,[4],28.5 g/dL
same,MCV,[4],52.3 fL
same,Monocytes,[4],0.12 10^3/μL
same,Neutrophils,[4],17.5%
same,RBC,[4],10.1
same,Reticulocytes,[4],3.2%
same,WBC,[4],4.7 10^3/μL
same,platelets,[4],1236 10^3/μL
same,Body weight,[5],7403 g
same,Heart weight,[5],60.5 g
same,Kidney weight,[5],40.3 g
same,Liver weight,[5],250.3 g
same,Mesenteric LN weight,[5],10.9 g
same,Spleen weight,[5],28.9 g
same,Thymus weight,[5],8.3 g
same,Basophils,[6],0.3%
same,Eosinophils,[6],2.4%
same,Hematocrit,[6],43%
same,Hemoglobin,[6],13.9 g/dL
same,Lymphocytes,[6],34%
same,MCH,[6],21.7 pg
same,MCHC,[6],32.5 g/dL
same,MCV,[6],67 fL
same,Monocytes,[6],8.2%
same,Neutrophils,[6],55%
same,PLT,[6],250 ^3/μL
same,RBC,[6],6.4 ^6/L
same,Reticulocytes,[6],1.2%
same,WBC,[6],5.7 ^3/μL
same,"Full length oligonucleotide, Distal colon",[7],49 µg/g
same,"Full length oligonucleotide, Duodenum",[7],97 µg/g
same,"Full length oligonucleotide, Ileum",[7],41 µg/g
same,"Full length oligonucleotide, Kidney",[7],1470 µg/g
same,"Full length oligonucleotide, Liver",[7],466 µg/g
same,"Full length oligonucleotide, Proximal colon",[7],31 µg/g
"830037 (antisense CTATTGGCTGATCTGG; 3-10-3 cEt gapmer, further chemistry not given here) [compound 830037]",% Inhibition,[1]; [8],67%
same,"Oligonucleotide concentration, Colon",[2],24 μg/g tissue
same,"Oligonucleotide concentration, Liver",[2],97 μg/g tissue
same,"% inhibition of Smad7 mRNA expression (compared to control), Kidney",[3],7%
same,"% inhibition of Smad7 mRNA expression (compared to control), Liver",[3],24%
same,Basophils,[4],0.01 10^3/μL
same,Eosinophils,[4],0.15 10^3/μL
same,Hematocrit,[4],53.4%
same,Hemoglobin,[4],15.4 g/dL
same,Lymphocytes,[4],73.2%
same,MCH,[4],15.4 pg
same,MCHC,[4],28.9 g/dL
same,MCV,[4],53.2 fL
same,Monocytes,[4],0.13 10^3/μL
same,Neutrophils,[4],19.3%
same,RBC,[4],10.1
same,Reticulocytes,[4],3.1%
same,WBC,[4],4.3 10^3/μL
same,platelets,[4],1122 10^3/μL
same,Body weight,[5],6437 g
same,Heart weight,[5],51.9 g
same,Kidney weight,[5],36.7 g
same,Liver weight,[5],204.1 g
same,Mesenteric LN weight,[5],9.0 g
same,Spleen weight,[5],23.7 g
same,Thymus weight,[5],6.3 g
same,Basophils,[6],0.7%
same,Eosinophils,[6],2.6%
same,Hematocrit,[6],52%
same,Hemoglobin,[6],17.5 g/dL
same,Lymphocytes,[6],32%
same,MCH,[6],22.1 pg
same,MCHC,[6],33.6 g/dL
same,MCV,[6],66 fL
same,Monocytes,[6],8.0%
same,Neutrophils,[6],57%
same,PLT,[6],280 ^3/μL
same,RBC,[6],8.0 ^6/L
same,Reticulocytes,[6],0.3%
same,WBC,[6],8.5 ^3/μL
same,"Full length oligonucleotide, Distal colon",[7],46 µg/g
same,"Full length oligonucleotide, Duodenum",[7],55 µg/g
same,"Full length oligonucleotide, Ileum",[7],67 µg/g
same,"Full length oligonucleotide, Kidney",[7],894 µg/g
same,"Full length oligonucleotide, Liver",[7],521 µg/g
same,"Full length oligonucleotide, Proximal colon",[7],86 µg/g
